These are literature values, as cited in patent US20090252647A1, “COMPOSITIONS AND METHODS FOR APPLYING ANTIMICROBIALS TO SUBSTRATES” (Crosstex International, Inc., priority 2008, published 2009).

SMILES strings stand for the structures.

For `CCCCCCCCCCCCCCCCCC[N+](C)(C)CCC[Si](O)(O)O.[Cl-]` [3-(trihydroxysilyl)propyldimethyloctadecyl ammonium chloride], the solubility in water result is reported as “approximately 15 % w/v”.
